Laboratory results: patent publication US20060069110A1, “Substituted heterocyclic compounds and methods of use” (priority 2004, published 2006)
Where two headings read alike, the source gives them in different places.

Test system: THP1 cells (LPS induced TNF release)
Assay: Lipopolysaccharide-Activated THP1 Cell TNF Production Assay
Type: cell-based
Settings: Homo sapiens, read-out: IC50 values in the THP1 cell assay (LPS induced TNF release)
Outline: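 THP1 cells at 1E6/mL were treated with 3-fold serial compound dilutions and LPS (1 μg/mL stock) for 3 h at 37 °C. Secreted TNF-α was quantified by electrochemiluminescent sandwich immunoassay. Percent of DMSO control versus concentration was fitted to a 4-parameter equation.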

[1] = THP-1, THP1 cells, bacterial LPS, secreted TNF-α after 3 h at 37° C.

| SMILES | IC50 [1] | IC50 (THP-1, 3 h) |
| --- | --- | --- |
| COc1nc(-c2ccccc2)nc(N(C)c2ccnc(N[C@@H](C)Cc3cccc(CNC(=O)[C@H](C)N)c3)n2)n1 [Example 125, (S)-N-((S)-3-((S)-2-(4-((4-Methoxy-6-phenyl-1,3,5-triazin-2-yl)(methyl)amino)-pyrimidin-2-ylamino)propyl)benzyl)-2-aminopropanamide] | ≤ 20 µM |  |
| CC(C)n1cc(N(C)c2ccnc(N[C@@H](C)Cc3cccc(CN)c3)n2)cc(-c2ccccc2)c1=O [5-((2-(((1S)-2-(3-(aminomethyl)phenyl)-1-methylethyl)amino)-4-pyrimidinyl)(methyl)amino)-1-(1-methylethyl)-3-phenyl-2(1H)-pyridinone] | ≤ 20 µM |  |
| COc1ccc(-c2cccc(N(C)c3ccnc(NCCc4ccccc4)n3)n2)cc1 [Example 140, N^4-(6-(4-Methoxyphenyl)pyridin-2-yl)-N^4-methyl-N^2-phenethylpyrimidine-2,4-diamine] | ≤ 20 µM |  |
| C[C@@H](Cc1cccc([C@@H](C)N)c1)Nc1nccc(N(C)c2ccnc(-c3ccccc3)n2)n1 [Example 1, N^2-((S)-1-(3-((R)-1-Aminoethyl)phenyl)propan-2-yl)-N^4-methyl-N^4-(2-phenylpyrimidin-4-yl)pyrimidine-2,4-diamine] | ≤ 20 µM |  |
| CC(=O)N[C@H]1CC[C@H](Nc2nccc(N(C)c3ccnc(-c4ccccc4)n3)n2)CC1 [Example 24, N-(4-(4-(Methyl(2-phenylpyrimidin-4-yl)amino)pyrimidin-2-ylamino)cyclohexyl)-acetamide] | ≤ 20 µM |  |
| C[C@@H](Cc1cccc(-n2ccnc2)c1)Nc1nccc(N(C)c2ccnc(-c3ccccc3)n2)n1 [Example 116, N^2-((S)-1-(3-(1 H-Imidazol-1-yl)phenyl)propan-2-yl)-N^4-methyl-N^4-(2-phenyl-pyrimidin-4-yl)pyrimidine-2,4-diamine] | ≤ 20 µM |  |
| CN(c1cccc(-c2cc(F)cc(F)c2)n1)c1ccnc(NCCc2ccccc2)n1 [Example 143, N^4-(6-(3,5-Difluorophenyl)pyridin-2-yl)-N^4-methyl-N^2-phenethylpyrimidine-2,4-diamine] | ≤ 20 µM |  |
| CN(c1ccnc(N[C@@H](CN)Cc2ccccc2)n1)c1ccnc(-c2ccccc2)n1 [Example 48, (R)-N^2-(1-Amino-3-phenylpropan-2-yl)-N^4-methyl-N^4-(2-phenylpyrimidin-4-yl)pyrimidine-2,4-diamine] | ≤ 20 µM |  |
| CN(c1ccnc(N[C@@H](CO)Cc2ccccc2)n1)c1ccnc(-c2ccccc2)n1 [(2R)-2-((4-(methyl(2-phenyl-4-pyrimidinyl)amino)-2-pyrimidinyl)amino)-3-phenyl-1-propanol] | ≤ 20 µM |  |
| CN(c1ccnc(NCCc2cccc(-c3ccccn3)c2)n1)c1ccnc(-c2ccccc2)n1 [Example 118, N^2-(3-(Pyridin-2-yl)phenethyl)-N^4-methyl-N^4-(2-phenylpyrimidin-4-yl)pyrimidine-2,4-diamine] | ≤ 20 µM |  |
| CN(c1cc(-c2ccccc2)c(=O)n(C)c1)c1ccnc(N[C@@H](CC(=O)O)Cc2ccccc2)n1 [(3R)-3-((4-(methyl(1-methyl-6-oxo-5-phenyl-1,6-dihydro-3-pyridinyl)amino)-2-pyrimidinyl)amino)-4-phenylbutanoic acid] | ≤ 20 µM |  |
| NC(=O)c1cnc(-c2ccccc2)nc1Nc1ccnc(NCCc2cccnc2)n1 [Example 65, 2-Phenyl-4-(2-(2-(pyridin-3-yl)ethylamino)pyrimidin-4-ylamino)pyrimidine-5-carboxamide] | ≤ 20 µM |  |
| C[C@H](NC(=O)OC(C)(C)C)c1cccc(CCNc2nccc(N(C)c3ccnc(-c4ccccc4)n3)n2)c1 [Example 20, (S)-tert-Butyl 1-(3-(2-(4-(methyl(2-phenylpyrimidin-4-yl)amino)pyrimidin-2-yl-amino)ethyl)phenyl)ethylcarbamate] | ≤ 20 µM |  |
| CN(c1ccnc(NC[C@@H](O)c2ccccc2)n1)c1ccnc(-c2ccccc2)n1 [Example 111, (S)-2-(4-(Methyl(2-phenylpyrimidin-4-yl)amino)pyrimidin-2-ylamino)-1-phenyl-ethanol] | ≤ 20 µM |  |
| CN(c1ccnc(N[C@@H](CNCCN)Cc2ccccc2)n1)c1ccnc(-c2ccccc2)n1 [Example 50, (R)-N^2-(3-(2-Aminoethylamino)-1-phenylpropan-2-yl)-N^4-methyl-N^4-(2-phenyl-pyrimidin-4-yl)pyrimidine-2,4-diamine] | ≤ 20 µM |  |
| CN(c1cnc(OCc2ccccc2)c(-c2ccccc2)c1)c1ccnc(NC2CCNCC2)n1 [N^4-(6-(Benzyloxy)-5-phenylpyridin-3-yl)-N^4-methyl-N^2-(piperidin-4-yl)-pyrimidine-2,4-diamine] | ≤ 20 µM |  |
| CN(c1ccnc(-c2ccccc2)n1)c1ccnc(N2CC[C@H]2Cc2ccccc2)n1 [N-methyl-2-phenyl-N-(2-((2R)-2-(phenylmethyl)-1-azetidinyl)-4-pyrimidinyl)-4-pyrimidinamine] | ≤ 20 µM |  |
| C[C@@H](Cc1cccc(CNC(=O)OC(C)(C)C)c1)Nc1nccc(N(C)c2cc(-c3ccccc3)c(=O)n(C)c2)n1 [(S)-tert-Butyl-3-(2-(4-(methyl(1-methyl-6-oxo-5-phenyl-1,6-dihydro-pyridin-3-yl)amino)pyrimidin-2-ylamino)propyl)benzylcarbamate] | ≤ 20 µM |  |
| CC(Cc1cccc(CO)c1)Nc1nccc(N(C)c2cc(N)nc(-c3ccccc3)n2)n1 (centres unmarked) [Example 119, (3-(2-(4-((6-Amino-2-phenylpyrimidin-4-yl)(methyl)amino)pyrimidin-2-ylamino) -propyl)phenyl)methanol] | ≤ 20 µM |  |
| CNC(=O)NCc1cccc(C[C@H](C)Nc2nccc(Nc3nc(-c4ccccc4)ncc3C(=O)NC)n2)c1 [(S)-1-(3-(2-(4-(5-(Methylcarbamoyl)-2-phenylpyrimidin-4-ylamino)pyrimidin-2-ylamino)propyl)benzyl)-3-methylurea] | ≤ 20 µM |  |
| C[C@H](Nc1nccc(N(C)c2ccnc(-c3ccccc3)n2)n1)c1cccc(CCC(=O)O)c1 [Example 18, (S)-3-(3-(1-(4-(Methyl(2-phenylpyrimidin-4-yl)amino)pyrimidin-2-ylamino)-ethyl)phenyl)propanoic acid] | ≤ 20 µM |  |
| C[C@@H](Cc1cccc(CN)c1)Nc1nccc(N(C)c2nc(-c3ccccc3)ncc2F)n1 [Example 66, (S)-N^2-(1-(3-(Aminomethyl)phenyl)propan-2-yl)-N^4-(5-fluoro-2-phenylpyrimidin-4-yl)-N^4-methylpyrimidine-2,4-diamine] | ≤ 20 µM |  |
| Cc1nccn1-c1cccc(C[C@H](C)Nc2nccc(N(C)c3ccnc(-c4ccccc4)n3)n2)c1 [Example 117, N^4-Methyl-N^2-((S)-1-(3-(2-methyl-1H-imidazol-1-yl)phenyl)propan-2-yl)-N^4-(2-phenylpyrimidin-4-yl)pyrimidine-2,4-diamine] |  | ≤ 20 µM |
| CC(Cc1ccc(F)c(CO)c1)Nc1nccc(N(C)c2cc(-c3ccccc3)c(=O)n(C)c2)n1 (centres unmarked) [Example 177, 5-((2-(1-(4-Fluoro-3-(hydroxymethyl)phenyl)propan-2-ylamino)pyrimidin-4-yl)(methyl)amino)-1-methyl-3-phenylpyridin-2(1 H)-one] | ≤ 20 µM |  |
| CC(C)NC[C@@H](Cc1ccccc1)Nc1nccc(N(C)c2ccnc(-c3ccccc3)n2)n1 [Example 49, (R)-N^2-(3-(Isopropylamino)-1-phenylpropan-2-yl)-N^4-methyl-N^4-(2-phenyl-pyrimidin-4-yl)pyrimidine-2,4-diamine] | ≤ 20 µM |  |
| C[C@@H](Cc1cccc(C2(N)CC2)c1)Nc1nccc(N(C)c2ccnc(-c3ccccc3)n2)n1 [Example 7, (S)-N^2-(1-(3-(1-Aminocyclopropyl)phenyl)propan-2-yl)-N^4-methyl-N^4-(2-phenylpyrimidin-4-yl)pyrimidine-2,4-diamine] | ≤ 20 µM |  |
